Laboratory results from PubChem BioAssay AID2060507 (Molecular Pharmacology Branch, DTP, NCI, 2025).

System: 519858-162-T-J1-PDC complex spheroid viability
Experiment: Anticancer human tumor 519858-162-T-J1-PDC patient-derived colon adenocarcinoma cell line growth inhibition [GQUAD]
Conditions: for IC50: curve of first compound; for viability, T/C: stronger effect = lower value
Source text: DNA G-quadruplex Stabilizer Agents in Combinations in Complex Spheroids
A high-throughput screen of multi-cell type tumor spheroids was designed to identify active combinations of DNA G-quadruplex stabilizer agents and targeted small molecules. Complex spheroids include a stromal component modeled by human endothelial cells (HUVEC) and fibroblasts modeled by human mesenchymal stem cells (MSCs). The concentration ranges selected for each drug and investigational agent were based upon clinically achievable concentrations if the clinical Cmax of the agent was known.
Compounds. The drugs and investigational agents: pidnarulex (CX-5461; NSC782164), APTO-253 (NSC789042), BRACO-19 (NSC847499), peposertib (NSC802822), ceralasertib (NSC780249), elimusertib (NSC800525), camonsertib (NSC841442), AZD-1390 (NSC803789), olaparib (NSC753686), talazoparib (NSC767125), ART-558 (NSC835418), sotorasib (NSC818433), MRTX-1133 (NSC836407), SN-38 (NSC673596), topotecan (NSC609699), etoposide (NSC141540), doxorubicin (NSC123127), gemcitabine (NSC613327), 5-fluorouracil (NSC19893), paclitaxel (NSC125973), vemurafenib (NSC761431), panobinostat (NSC761190), R-306465 (JNJ-16241199; NSC773264), adavosertib (NSC754352), TP-3654 (NSC805149), carboplatin (NSC241240), KSQ-4279 (NSC840948), and staurosporine (NSC755774) were obtained from the National Cancer Institute (NCI) Developmental Therapeutics Program Chemical Repository (34). The FDA-approved anticancer drug set is available from the NCI Developmental Therapeutics Program. […] The stock solutions were prepared in dimethyl sulfoxide (DMSO, Sigma-Aldrich, St. Louis, MO, cat. D2650) at 800-fold the tested concentration and stored at -70 degrees C prior to their use. All drugs and investigational agents were tested over a range starting from a high concentration at or near the clinical Cmax and decreasing in half-log increments. If the clinical Cmax for an agent had not been determined, the highest concentration tested was 10 microM.
2.3 Cell Culture. All cells were maintained in an incubator at 37 degrees C and 5% CO2 with 95% humidity. The PDC lines were cultured according to standard operating procedures established by the NCI PDMR. All PDCs were thawed and cultured in Matrigel-coated flasks prepared with a working solution of 1X Ham's F-12 nutrient mix, without supplementation (Invitrogen, cat. 11765054), 100 U/mL penicillin-streptomycin (Invitrogen, cat. 15140122), and 2.5% Matrigel (Corning Inc., cat. 354248) for the first three passages. The 857933-349-R-J2-PDC line was cultured in 6C/Colon 1B media, which includes advanced DMEM/F-12 (Thermo Fisher Scientific, cat. 12634028), 10 mM HEPES (Thermo Fisher Scientific, cat. 15630080), 1X GlutaMAX supplement (Thermo Fisher Scientific, cat. 35050061), 0.1 mg/mL primocin (InvivoGen, cat. ant-pm-2), 10% defined fetal bovine serum, heat inactivated (HyClone Laboratories Inc., cat. SH30070.03HI), 50% L-WRN conditioned media (ATCC, cat. CRL-3276), 1.25 mM N-Acetyl-L-cysteine (Sigma-Aldrich, cat. A9165), 10 mM nicotinamide (Sigma-Aldrich, cat. N0636), 1X B-27 supplement (Thermo Fisher Scientific, cat. 17504044), 1X N-2 supplement (Thermo Fisher Scientific, cat. 17502048), 10 microM Y-27632 dihydrochloride (Tocris Bioscience, cat. 1254), and 50 ng/mL human EGF recombinant protein (Thermo Fisher Scientific, cat. PHG0311). The 485176-168-R4-J1-PDC line was cultured in Panc media, which includes all 6C/Colon 1B media components plus 100 ng/mL human FGF-10 (Thermo Fisher Scientific, cat. 100-26), 500 nM SB-431542 (Selleckchem, cat. S1067), and gastrin (Tocris, cat. 3006).
[…]

[1] = second compound 0.0316 µM, first compound 0.0316 µM
[2] = second compound 0.0316 µM, first compound 0.1 µM
[3] = second compound 0.0316 µM, first compound 0.316 µM
[4] = second compound 0.0316 µM, first compound 1 µM
[5] = second compound 0.0316 µM, first compound 3.16 µM
[6] = second compound 0.0316 µM, first compound 10 µM
[7] = second compound 0.1 µM, first compound 0.0316 µM
[8] = second compound 0.1 µM, first compound 0.1 µM
[9] = second compound 0.1 µM, first compound 0.316 µM
[10] = second compound 0.1 µM, first compound 1 µM
[11] = second compound 0.1 µM, first compound 3.16 µM
[12] = second compound 0.1 µM, first compound 10 µM
[13] = second compound 0.316 µM, first compound 0.0316 µM
[14] = second compound 0.316 µM, first compound 0.1 µM
[15] = second compound 0.316 µM, first compound 0.316 µM
[16] = second compound 0.316 µM, first compound 1 µM
[17] = second compound 0.316 µM, first compound 3.16 µM
[18] = second compound 0.316 µM, first compound 10 µM
[19] = second compound 1 µM, first compound 0.0316 µM
[20] = second compound 1 µM, first compound 0.1 µM
[21] = second compound 1 µM, first compound 0.316 µM
[22] = second compound 1 µM, first compound 1 µM
[23] = second compound 1 µM, first compound 3.16 µM
[24] = second compound 1 µM, first compound 10 µM
[25] = second compound 3.16 µM, first compound 0.0316 µM
[26] = second compound 3.16 µM, first compound 0.1 µM
[27] = second compound 3.16 µM, first compound 0.316 µM
[28] = second compound 3.16 µM, first compound 1 µM
[29] = second compound 3.16 µM, first compound 3.16 µM
[30] = second compound 3.16 µM, first compound 10 µM
[31] = second compound 10 µM, first compound 0.0316 µM
[32] = second compound 10 µM, first compound 0.1 µM
[33] = second compound 10 µM, first compound 0.316 µM
[34] = second compound 10 µM, first compound 1 µM
[35] = second compound 10 µM, first compound 3.16 µM
[36] = second compound 10 µM, first compound 10 µM
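Also: spheroids exposed to compounds for 7 days.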
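For viability, T/C in this document: 100% = DMSO vehicle control viability.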

C=CCn1c(=O)c2cnc(Nc3ccc(N4CCN(C)CC4)cc3)nc2n1-c1cccc(C(C)(C)O)n1 + CN(C)c1ccc(Nc2c3ccc(NC(=O)CCN4CCCC4)cc3nc3cc(NC(=O)CCN4CCCC4)ccc23)cc1
IC50 (second compound 0.0316 µM): > 10 µM
IC50 (second compound 0.1 µM): > 10 µM
IC50 (second compound 0.316 µM): > 10 µM
IC50 (second compound 1 µM): > 10 µM
IC50 (second compound 3.16 µM): > 10 µM
IC50 (second compound 10 µM): > 10 µM
viability, T/C [1]: 95.3%
viability, T/C [2]: 120%
viability, T/C [3]: 117%
viability, T/C [4]: 83.3%
viability, T/C [5]: 75.2%
viability, T/C [6]: 120%
viability, T/C [7]: 150%
viability, T/C [8]: 86.8%
viability, T/C [9]: 92.5%
viability, T/C [10]: 64.6%
viability, T/C [11]: 88.4%
viability, T/C [12]: 67.6%
viability, T/C [13]: 112%
viability, T/C [14]: 89.7%
viability, T/C [15]: 88.9%
viability, T/C [16]: 63.8%
viability, T/C [17]: 85.1%
viability, T/C [18]: 104%
viability, T/C [19]: 72.3%
viability, T/C [20]: 74.7%
viability, T/C [21]: 61.4%
viability, T/C [22]: 65%
viability, T/C [23]: 80.4%
viability, T/C [24]: 80.2%
viability, T/C [25]: 77.7%
viability, T/C [26]: 62%
viability, T/C [27]: 66.7%
viability, T/C [28]: 67.6%
viability, T/C [29]: 62.1%
viability, T/C [30]: 91.1%
viability, T/C [31]: 78%
viability, T/C [32]: 63.8%
viability, T/C [33]: 57.7%
viability, T/C [34]: 62%
viability, T/C [35]: 89.3%
viability, T/C [36]: 137%

COc1cc(C2c3cc4c(cc3C(OC3OC5COC(C)OC5C(O)C3O)C3COC(=O)C23)OCO4)cc(OC)c1O (stereo unspecified) + CN(C)c1ccc(Nc2c3ccc(NC(=O)CCN4CCCC4)cc3nc3cc(NC(=O)CCN4CCCC4)ccc23)cc1
IC50 (second compound 0.0316 µM): > 10 µM
IC50 (second compound 0.1 µM): > 10 µM
IC50 (second compound 0.316 µM): > 10 µM
IC50 (second compound 1 µM): > 10 µM
IC50 (second compound 3.16 µM): > 10 µM
IC50 (second compound 10 µM): > 10 µM
viability, T/C [1]: 87.2%
viability, T/C [2]: 80.1%
viability, T/C [3]: 83.5%
viability, T/C [4]: 69.2%
viability, T/C [5]: 80.7%
viability, T/C [6]: 103%
viability, T/C [7]: 68.6%
viability, T/C [8]: 81.8%
viability, T/C [9]: 79.6%
viability, T/C [10]: 94.3%
viability, T/C [11]: 60.8%
viability, T/C [12]: 84%
viability, T/C [13]: 93.5%
viability, T/C [14]: 95.8%
viability, T/C [15]: 80.5%
viability, T/C [16]: 61.8%
viability, T/C [17]: 77%
viability, T/C [18]: 62.7%
viability, T/C [19]: 85.4%
viability, T/C [20]: 65.2%
viability, T/C [21]: 64.9%
viability, T/C [22]: 65.9%
viability, T/C [23]: 77%
viability, T/C [24]: 80.3%
viability, T/C [25]: 59.8%
viability, T/C [26]: 76.2%
viability, T/C [27]: 65.3%
viability, T/C [28]: 74.1%
viability, T/C [29]: 101%
viability, T/C [30]: 67.6%
viability, T/C [31]: 55.6%
viability, T/C [32]: 69.2%
viability, T/C [33]: 73.6%
viability, T/C [34]: 64.3%
viability, T/C [35]: 74.8%
viability, T/C [36]: 83.8%

COc1ccc([C@@H](O)c2cc(-c3ncnc4cc(N5CCOCC5)ccc34)c(F)cc2Cl)nn1 + Cc1[nH]c2ccc(F)cc2c1-c1nc2c3cccnc3c3ncccc3c2[nH]1
IC50 (second compound 0.0316 µM): > 10 µM
IC50 (second compound 0.1 µM): > 10 µM
IC50 (second compound 0.316 µM): > 10 µM
IC50 (second compound 1 µM): > 10 µM
IC50 (second compound 3.16 µM): 5.82 µM
IC50 (second compound 10 µM): 9.78 µM
viability, T/C [1]: 79%
viability, T/C [2]: 99.7%
viability, T/C [3]: 71.4%
viability, T/C [4]: 86.4%
viability, T/C [5]: 74.1%
viability, T/C [6]: 53%
viability, T/C [7]: 82.9%
viability, T/C [8]: 92.8%
viability, T/C [9]: 88.3%
viability, T/C [10]: 72.6%
viability, T/C [11]: 85.1%
viability, T/C [12]: 54.7%
viability, T/C [13]: 96%
viability, T/C [14]: 104%
viability, T/C [15]: 64%
viability, T/C [16]: 72.7%
viability, T/C [17]: 89.4%
viability, T/C [18]: 70.2%
viability, T/C [19]: 123%
viability, T/C [20]: 90.4%
viability, T/C [21]: 87%
viability, T/C [22]: 77.5%
viability, T/C [23]: 97.4%
viability, T/C [24]: 42.8%
viability, T/C [25]: 66.9%
viability, T/C [26]: 87.5%
viability, T/C [27]: 84.9%
viability, T/C [28]: 64.9%
viability, T/C [29]: 65.5%
viability, T/C [30]: 37.9%
viability, T/C [31]: 58.5%
viability, T/C [32]: 86.9%
viability, T/C [33]: 58.9%
viability, T/C [34]: 82.2%
viability, T/C [35]: 70.5%
viability, T/C [36]: 49.5%
